From ChEMBL document CHEMBL1201862, “PubChem BioAssay data set” (2004)
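Test compounds were applied to cells in 96-well plates for 48 hours at 5 doses. GI50: concentration for 50% inhibition of growth.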 Activity calls are given as the source filed them. No stated cut-off is given here; in the data, active = GI50 up to about 1.1 µM and inactive = higher.

What was measured:
Experiment in all cases: growth of human tumour cells (NCI), 48 h
SF-539 = tested on: SF-539
MDA-MB-435 = tested on: MDA-MB-435
SK-OV-3 = tested on: SK-OV-3
ACHN = tested on: ACHN
UACC-62 = tested on: UACC-62
MCF7 = tested on: MCF7
PC-3 = tested on: PC-3
MDA-N = tested on: MDA-N
SN12C = tested on: SN12C
DU-145 = tested on: DU-145
HCC 2998 = tested on: HCC 2998
NCI-H460 = tested on: NCI-H460
EKVX = tested on: EKVX
NCI-H522 = tested on: NCI-H522
CCRF-CEM = tested on: CCRF-CEM
COLO 205 = tested on: COLO 205
IGROV-1 = tested on: IGROV-1
SW-620 = tested on: SW-620
NCI-H23 = tested on: NCI-H23

SMILES | GI50 (SF-539) | GI50 (MDA-MB-435) | GI50 (SK-OV-3) | GI50 (ACHN) | GI50 (UACC-62) | GI50 (MCF7) | GI50 (PC-3) | GI50 (MDA-N) | GI50 (SN12C) | GI50 (DU-145) | GI50 (HCC 2998) | GI50 (NCI-H460) | GI50 (EKVX) | GI50 (NCI-H522) | GI50 (CCRF-CEM) | GI50 (COLO 205) | GI50 (IGROV-1) | GI50 (SW-620) | GI50 (NCI-H23)
COc1cc2c(C)cc(O)cc2c2cc(O)c(C)cc12 | 9.14 µM (inactive) | 9.75 µM (inactive) | 12.9 µM (inactive) | 12.4 µM (inactive) | 12 µM (inactive) | 10.4 µM (inactive) | 9.57 µM (inactive) | 10.2 µM (inactive) | 9.84 µM (inactive) | 10.9 µM (inactive) | 13.5 µM (inactive) | 2.56 µM (inactive) | 11.7 µM (inactive) | 13.7 µM (inactive) | 2.78 µM (inactive) | 9.91 µM (inactive) | 14.1 µM (inactive) | 10.2 µM (inactive) | 11.5 µM (inactive)
COC(=O)[C@H](Cc1ccccc1)NP(=O)(O)OCC1OC(n2cc(C)c(=O)[nH]c2=O)CC1N=[N+]=[N-] (some centres undefined) | > 100 µM (inactive) | > 100 µM (inactive) | > 100 µM (inactive) | > 100 µM (inactive) | – | > 100 µM (inactive) | > 100 µM (inactive) | > 100 µM (inactive) | > 100 µM (inactive) | > 100 µM (inactive) | > 100 µM (inactive) | > 100 µM (inactive) | > 100 µM (inactive) | > 100 µM (inactive) | > 100 µM (inactive) | > 100 µM (inactive) | > 100 µM (inactive) | > 100 µM (inactive) | > 100 µM (inactive)
CN1CC2=C(N=C(S)NC2c2ccccc2Cl)/C(=C/c2ccccc2Cl)C1 (centres undefined) | 73.6 µM (inactive) | 28.8 µM (inactive) | > 100 µM (inactive) | 25.1 µM (inactive) | 14.7 µM (inactive) | > 100 µM (inactive) | 26.5 µM (inactive) | 60.3 µM (inactive) | 46.2 µM (inactive) | 76.2 µM (inactive) | > 100 µM (inactive) | > 100 µM (inactive) | 43.2 µM (inactive) | 29.6 µM (inactive) | 28.8 µM (inactive) | 21.8 µM (inactive) | 53.7 µM (inactive) | > 100 µM (inactive) | 43.2 µM (inactive)
O=C1CSc2ccnc(=O)n21 | > 100 µM (inactive) | > 100 µM (inactive) | > 100 µM (inactive) | > 100 µM (inactive) | > 100 µM (inactive) | > 100 µM (inactive) | > 100 µM (inactive) | > 100 µM (inactive) | > 100 µM (inactive) | > 100 µM (inactive) | > 100 µM (inactive) | > 100 µM (inactive) | > 100 µM (inactive) | > 100 µM (inactive) | > 100 µM (inactive) | > 100 µM (inactive) | > 100 µM (inactive) | > 100 µM (inactive) | > 100 µM (inactive)
CC1OC(OC2C(Oc3cc(O)c4c(c3)O[C@H](c3ccc(O)cc3)CC4=O)OC(CO)C(O)C2O)C(O)C(O)C1O (some centres undefined) | > 100 µM (inactive) | > 100 µM (inactive) | > 100 µM (inactive) | > 100 µM (inactive) | > 100 µM (inactive) | > 100 µM (inactive) | > 100 µM (inactive) | > 100 µM (inactive) | > 100 µM (inactive) | > 100 µM (inactive) | > 100 µM (inactive) | – | > 100 µM (inactive) | > 100 µM (inactive) | > 100 µM (inactive) | > 100 µM (inactive) | > 100 µM (inactive) | > 100 µM (inactive) | > 100 µM (inactive)
CC(C)(Cl)C(Br)CC/C(=C/CCl)CBr.CC(C)(Cl)C(Br)CC/C(=C\CCl)CBr (centres undefined) | 1.88 µM (inactive) | 2 µM (inactive) | 16.9 µM (inactive) | 2.77 µM (inactive) | 1.93 µM (inactive) | 0.733 µM (active) | 2.61 µM (inactive) | 1.64 µM (inactive) | 2.49 µM (inactive) | 3.32 µM (inactive) | 1.58 µM (inactive) | 2.02 µM (inactive) | 8.97 µM (inactive) | 0.998 µM (active) | 1.32 µM (inactive) | 2.4 µM (inactive) | 2.31 µM (inactive) | 1.92 µM (inactive) | 1.91 µM (inactive)
CC(NC(=O)C(N)CC(=O)O)NC(=O)N1CCCC1 (centres undefined) | > 100 µM (inactive) | > 100 µM (inactive) | > 100 µM (inactive) | > 100 µM (inactive) | > 100 µM (inactive) | > 100 µM (inactive) | > 100 µM (inactive) | > 100 µM (inactive) | > 100 µM (inactive) | > 100 µM (inactive) | > 100 µM (inactive) | > 100 µM (inactive) | > 100 µM (inactive) | > 100 µM (inactive) | > 100 µM (inactive) | > 100 µM (inactive) | > 100 µM (inactive) | > 100 µM (inactive) | > 100 µM (inactive)
CC[C@@]1(O)C(=O)OCc2c1cc1n(c2=O)Cc2c-1nc1ccccc1c2/C=N\NC(=O)C(C)N (some centres undefined) | < 0.0116 µM (active) | 1.61 µM (inactive) | – | < 0.0216 µM (active) | < 0.01 µM (active) | < 0.022 µM (active) | 1.91 µM (inactive) | 1.34 µM (inactive) | < 0.01 µM (active) | 0.0401 µM (active) | 0.332 µM (active) | < 0.0243 µM (active) | 11.9 µM (inactive) | 0.432 µM (active) | < 0.01 µM (active) | 7.11 µM (inactive) | 1.13 µM (inactive) | 1.37 µM (inactive) | < 0.0214 µM (active)
Nc1nc(N)c(N=O)c(Nc2ccc(O)cc2)n1 | 6.56 µM (inactive) | 38.7 µM (inactive) | 18.1 µM (inactive) | 46.2 µM (inactive) | 41 µM (inactive) | 5.97 µM (inactive) | 32.2 µM (inactive) | 28.8 µM (inactive) | 31.1 µM (inactive) | 34.6 µM (inactive) | 72.3 µM (inactive) | > 61.1 µM (inactive) | > 69.8 µM (inactive) | 15.9 µM (inactive) | 14.9 µM (inactive) | 57.5 µM (inactive) | 7.82 µM (inactive) | > 60.5 µM (inactive) | 49.9 µM (inactive)
O=[N+]([O-])c1cc(Cl)cc2cc(Br)cnc12 | > 31.6 µM (inactive) | > 31.6 µM (inactive) | > 10 µM (inactive) | > 31.6 µM (inactive) | 23.2 µM (inactive) | > 31.6 µM (inactive) | > 31.6 µM (inactive) | > 31.6 µM (inactive) | > 31.6 µM (inactive) | > 31.6 µM (inactive) | > 31.6 µM (inactive) | > 31.6 µM (inactive) | > 31.6 µM (inactive) | 29.6 µM (inactive) | > 31.6 µM (inactive) | > 31.6 µM (inactive) | – | – | 26.9 µM (inactive)
CC1(C)C2CCC1C(=O)[C@@]1(C=CC(=O)CC1)C2 (some centres undefined) | > 100 µM (inactive) | > 100 µM (inactive) | > 100 µM (inactive) | > 100 µM (inactive) | > 100 µM (inactive) | > 100 µM (inactive) | > 100 µM (inactive) | > 100 µM (inactive) | > 100 µM (inactive) | > 100 µM (inactive) | > 100 µM (inactive) | > 100 µM (inactive) | > 100 µM (inactive) | > 100 µM (inactive) | > 100 µM (inactive) | > 100 µM (inactive) | > 100 µM (inactive) | > 100 µM (inactive) | > 100 µM (inactive)
O=c1oc2ccccc2c(Nc2ccc3c(c2)Sc2ccccc2O3)c1[N+](=O)[O-] | 26.3 µM (inactive) | 29.2 µM (inactive) | 35.2 µM (inactive) | 19.6 µM (inactive) | 14.1 µM (inactive) | 18.7 µM (inactive) | 19.4 µM (inactive) | 30.9 µM (inactive) | 28.9 µM (inactive) | 27.8 µM (inactive) | 20.4 µM (inactive) | 17.3 µM (inactive) | 22.9 µM (inactive) | 16.4 µM (inactive) | 31.7 µM (inactive) | 16.3 µM (inactive) | 26.2 µM (inactive) | – | 25.9 µM (inactive)
CCOC(=O)C1=NOC2(C=C(Br)C(=O)C(Br)=C2)C1 | 4.43 µM (inactive) | 1.76 µM (inactive) | 8.39 µM (inactive) | 0.923 µM (active) | 3.7 µM (inactive) | 2.45 µM (inactive) | 2.29 µM (inactive) | 1.64 µM (inactive) | 2.36 µM (inactive) | 6.7 µM (inactive) | 1.79 µM (inactive) | 6.55 µM (inactive) | 2.22 µM (inactive) | 0.335 µM (active) | < 0.0132 µM (active) | 0.991 µM (active) | 7.36 µM (inactive) | 0.37 µM (active) | 3.05 µM (inactive)
Oc1ccccc1C1=NOC(c2ccc(C(F)(F)F)cc2)C1 (centres undefined) | > 50 µM (inactive) | > 50 µM (inactive) | > 50 µM (inactive) | > 50 µM (inactive) | > 50 µM (inactive) | 0.665 µM (active) | > 50 µM (inactive) | > 50 µM (inactive) | > 50 µM (inactive) | > 50 µM (inactive) | > 50 µM (inactive) | > 50 µM (inactive) | > 50 µM (inactive) | > 50 µM (inactive) | > 50 µM (inactive) | > 50 µM (inactive) | 0.527 µM (active) | > 50 µM (inactive) | > 50 µM (inactive)
CC(C)=NOC(=O)OC[C@H]1O[C@@H](n2cnc3c(N)ncnc32)C(O)C1O (some centres undefined) | > 100 µM (inactive) | 82.6 µM (inactive) | > 100 µM (inactive) | > 100 µM (inactive) | > 10 µM (inactive) | 91.6 µM (inactive) | > 100 µM (inactive) | 43.3 µM (inactive) | > 100 µM (inactive) | > 100 µM (inactive) | > 100 µM (inactive) | 40.9 µM (inactive) | > 100 µM (inactive) | > 100 µM (inactive) | > 100 µM (inactive) | > 100 µM (inactive) | > 100 µM (inactive) | 89.3 µM (inactive) | > 100 µM (inactive)
